Laboratory results reported in US20250154134A1, “COMPOUND AS FAK INHIBITOR AND USE THEREOF” (WIGEN BIOMEDICINE TECHNOLOGY (SHANGHAI) CO., LTD., priority 2022, published 2025).

Experiments:
PC3 cells [1] = assay: PC3 cell proliferation, 2D activity assay (Cell Titer-Lumi, 72 h); format: cell-based, human; details: Homo sapiens, PC-3, read-out: 2D inhibitory activity against PC3 cells IC50
Experimental: (§1) 2D activity assay: 1200 PC3 cells were seeded in a 96-well plate. After overnight adherence culture, A compound serially diluted was added. […] The growth of the cells was evaluated, and the IC50 of the compound inhibiting cell growth was calculated. 3D activity assay: PC3 cells were seeded in a 96-well plate at 1200 cells/well, and 3D culture was performed. 14 days after a compound serially diluted was added, the growth of the cells was measured. The inhibition percentage and IC50 of the compound were calculated compared to the DMSO control group.

FAK recombinant protein = FAK recombinant protein (Homo sapiens (Human), UniProt Q05397); assay: Inhibitory activity against FAK enzyme (HTRF, TK substrate); format: biochemical
Experimental: A compound serially diluted with DMSO was mixed with a FAK recombinant protein. After the mixture was left to stand at room temperature for 10 min, a biotin-labeled TK substrate (TK) and ATP were added. […] The inhibition percentage and IC50 of the compound were calculated compared to the DMSO control group.

PC3 cells [2] = assay: PC3 cell proliferation, 3D activity assay (3D culture, 14 days); format: cell-based, human; details: Homo sapiens, PC-3, 336 h, read-out: 3D inhibitory activity against PC3 cells IC50
Experimental: as §1

Chain of FAK recombinant protein (Q05397 whole entry): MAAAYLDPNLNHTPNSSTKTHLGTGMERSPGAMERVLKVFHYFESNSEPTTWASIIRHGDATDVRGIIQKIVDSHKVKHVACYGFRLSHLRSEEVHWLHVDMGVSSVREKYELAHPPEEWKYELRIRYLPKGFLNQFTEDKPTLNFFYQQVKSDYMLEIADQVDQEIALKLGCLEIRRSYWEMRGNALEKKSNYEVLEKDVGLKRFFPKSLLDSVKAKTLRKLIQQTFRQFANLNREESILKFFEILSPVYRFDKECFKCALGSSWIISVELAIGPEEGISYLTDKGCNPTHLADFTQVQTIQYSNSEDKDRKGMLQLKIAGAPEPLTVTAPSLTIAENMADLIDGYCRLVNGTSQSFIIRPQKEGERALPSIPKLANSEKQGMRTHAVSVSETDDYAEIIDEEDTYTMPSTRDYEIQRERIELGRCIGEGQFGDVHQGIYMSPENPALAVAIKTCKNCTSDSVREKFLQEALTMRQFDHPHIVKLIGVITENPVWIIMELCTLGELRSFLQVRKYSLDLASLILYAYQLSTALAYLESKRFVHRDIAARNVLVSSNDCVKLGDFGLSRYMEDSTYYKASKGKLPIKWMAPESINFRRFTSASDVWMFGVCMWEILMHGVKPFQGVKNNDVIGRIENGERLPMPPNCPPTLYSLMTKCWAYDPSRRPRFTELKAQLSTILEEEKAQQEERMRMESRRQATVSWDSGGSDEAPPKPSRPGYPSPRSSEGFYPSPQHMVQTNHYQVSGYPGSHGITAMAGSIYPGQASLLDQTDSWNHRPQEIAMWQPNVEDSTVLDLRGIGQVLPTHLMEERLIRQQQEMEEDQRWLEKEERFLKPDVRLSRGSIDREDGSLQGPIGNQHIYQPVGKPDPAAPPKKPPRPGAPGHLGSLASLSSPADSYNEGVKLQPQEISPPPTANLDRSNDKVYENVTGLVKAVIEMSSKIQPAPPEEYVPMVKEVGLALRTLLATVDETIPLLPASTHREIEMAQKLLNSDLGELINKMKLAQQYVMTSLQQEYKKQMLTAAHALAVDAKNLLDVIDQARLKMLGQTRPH

Structure (SMILES)	IC50 (PC3 cells [1])	IC50 (FAK recombinant protein)	IC50 (PC3 cells [2])
COc1cc(N2CC3(CCN(C)C3)OC2=O)ccc1Nc1ncc(C(F)(F)F)c(Oc2cccc3c2C(=O)N(C)C32CC2)n1 (stereo not drawn) [Compound 65]	> 2000 nM	< 20 nM	< 5 nM
COc1cc(N2CC3(CCC2=O)CCN(C)CC3)ccc1Nc1ncc(C(F)(F)F)c(Oc2cccc3c2C(=O)N(C)C32CC2)n1 [Compound 66]	> 2000 nM	< 20 nM	> 50 nM
COc1cc(N2CC3(CCN(C)C3)OCC2=O)ccc1Nc1ncc(C(F)(F)F)c(Oc2cccc3c2C(=O)N(C)C32CC2)n1 (stereo not drawn) [Compound 67]	> 2000 nM	< 20 nM	5 to 50 nM
COc1cc(C2=NOC3(CCN(C)CC3)C2)ccc1Nc1ncc(C(F)(F)F)c(Oc2cccc3c2C(=O)N(C)C32CC2)n1 [Compound 68]	> 2000 nM	< 20 nM	> 50 nM
CN1C(=O)c2c(Oc3nc(Nc4ccc5c(c4)CNC5=O)ncc3C(F)(F)F)cccc2C12CC2 [Compound 70]	> 2000 nM	< 20 nM	> 50 nM
CN1CCC(N2C(=O)Cc3cc(Nc4ncc(C(F)(F)F)c(Oc5cccc6c5C(=O)N(C)C65CC5)n4)ccc32)CC1 [Compound 72]	> 2000 nM	< 20 nM	< 5 nM
COc1cc(N2CCNCC2)ccc1Nc1ncc(C(F)(F)F)c(Oc2cccc3c2C(=O)N(C)C32CC2)n1 [Compound 74, 4′-((2-((2-methoxy-4-(piperazin-1-yl)phenyl)amino)-5-(trifluoromethyl)pyrimidin-4-yl)oxy)-2′-methylspiro[cyclopropane-1,1′-isoindolin]-3′-one]	> 2000 nM	< 20 nM	5 to 50 nM
COc1cc(N2CCN(CC(=O)N(C)C)CC2)ccc1Nc1ncc(C(F)(F)F)c(Oc2cccc3c2C(=O)N(C)C32CC2)n1 [Compound 75, 2-(4-(3-methoxy-4-((4-((2′-methyl-3′-oxospiro[cyclopropane-1,1′-isoindolin]-4′-yl)oxy)-5-(trifluoromethyl)pyrimidin-2-yl)amino)phenyl)piperazin-1-yl)-N,N-dimethylacetamide]	> 2000 nM	< 20 nM	< 5 nM
COCCN1CCN(c2ccc(Nc3ncc(C(F)(F)F)c(Oc4cccc5c4C(=O)N(C)C54CC4)n3)c(OC)c2)CC1 [Compound 76, 4′-((2-((2-methoxy-4-(4-(2-methoxyethyl)piperazin-1-yl)phenyl)amino)-5-(trifluoromethyl)pyrimidin-4-yl)oxy)-2′-methylspiro[cyclopropane-1,1′-isoindolin]-3′-one]	> 2000 nM	< 20 nM	< 5 nM
COc1cc(CN(C)C)ccc1Nc1ncc(C(F)(F)F)c(Oc2cccc3c2C(=O)N(C)C32CC2)n1 [Compound 80]	> 2000 nM	< 20 nM	5 to 50 nM
COc1cc(CN2CCCC2)ccc1Nc1ncc(C(F)(F)F)c(Oc2cccc3c2C(=O)N(C)C32CC2)n1 [Compound 81]	> 2000 nM	< 20 nM	5 to 50 nM
COc1cc(N2CCN(C)CC2=O)ccc1Nc1ncc(C(F)(F)F)c(Oc2cccc3c2C(=O)N(C)C32CC2)n1 [Compound 83]	> 2000 nM	< 20 nM	> 50 nM
COc1cc(C2CCN(C)CC2)ccc1Nc1ncc(C(F)(F)F)c(Oc2cccc3c2C(=O)N(C)C32CC2)n1 [Compound 84]	> 2000 nM	< 20 nM	< 5 nM
CN1CCN(c2ccc(Nc3ncc(C(F)(F)F)c(Oc4cccc5c4C(=O)N(C)C54CC4)n3)nc2)CC1 [Compound 85]	> 2000 nM	< 20 nM	5 to 50 nM
COc1cc2c(cc1Nc1ncc(C(F)(F)F)c(Oc3cccc4c3C(=O)N(C)C43CC3)n1)CN(C)CC2 [Compound 86]	> 2000 nM	< 20 nM	5 to 50 nM
COc1cc2c(cc1Nc1ncc(C(F)(F)F)c(Oc3cccc4c3C(=O)N(C)C43CC3)n1)CN(C)C(=O)C2 [Compound 90]	> 2000 nM	< 20 nM	5 to 50 nM
Cc1c(Nc2ncc(C(F)(F)F)c(Oc3cccc4c3C(=O)N(C)C43CC3)n2)nn2c1CCC2 [Compound 93]	> 2000 nM	< 20 nM	5 to 50 nM
CN1C(=O)c2c(Oc3nc(Nc4cc5n(n4)CCOC5)ncc3C(F)(F)F)cccc2C12CC2 [Compound 94]	> 2000 nM	< 20 nM	< 5 nM
CN1C(=O)c2c(Oc3nc(Nc4cnn5c4COCC5)ncc3C(F)(F)F)cccc2C12CC2 [Compound 95]	> 2000 nM	< 20 nM	5 to 50 nM
